Experimental findings from US9676704B2, “Pesticidal compositions and processes related thereto” (Dow AgroSciences LLC, priority 2014, dated 2017) are described below.

Read-outs that look alike come from different tables or passages of the source.

In data set [1] the test system is Beet Armyworm (BAW). Kind of data set: Bioassays on BAW, 128-well diet tray assay. It counts as in vivo. Conditions: Spodoptera exigua; for mortality at 50 µg/cm2: 168 h, read-out: BAW % Control (or Mortality) rating. Put shortly: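 Test compound was applied at 50 μg/cm^2 in 90:10 acetone-water to the artificial diet surface and dried, with eight wells per compound. One to five second-instar beet armyworm larvae were placed per well and held at 25 °C, 14:10 light-dark, for five to seven days. Percent mortality was averaged over the wells.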

Data set [2] relates to Cabbage Looper (CL). Kind of data set: Bioassays on CL, 128-well diet tray assay. It counts as in vivo. Conditions: Trichoplusia ni; for mortality at 50 µg/cm2: 168 h, read-out: CL % Control (or Mortality) rating. Put shortly:
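Second-instar larvae, one to five per well, were placed on artificial diet treated with 50 μg/cm^2 compound (in 90:10 acetone-water) and dried, with eight wells per compound. Trays were held at 25° C, 14:10 light-dark, for five to seven days. Percent mortality was scored per well and averaged.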

For data set [3], the system named is Green Peach Aphid (GPA). The data set is described as follows: Bioassays on Green Peach Aphid, cabbage seedling foliar spray. It counts as in vivo. Conditions: Myzus persicae, 72 h, read-out: GPA % Control (or Mortality) rating. The procedure: Cabbage seedlings grown in 3-inch pots, with 2-3 small (3-5 cm) true leaves, were used as test substrate. The seedlings were infested with 20-50 GPA (wingless adult and nymph stages) one day prior to chemical application. Four pots with individual seedlings were used for each treatment. Test compounds (2 mg) were dissolved in 2 mL of acetone/MeOH (1:1) solvent, forming stock solutions of 1000 ppm test compound. The stock solutions were diluted 5× with 0.025% Tween 20 in water to obtain the solution at 200 ppm test compound. A hand-held aspirator-type sprayer was used for spraying a solution to both sides of […] leaves until runoff. Reference plants (solvent check) were sprayed with the diluent only containing 20% by volume of acetone/MeOH (1:1) solvent. Treated plants were held in a holding room for three days at approximately 25° C. and ambient relative humidity (RH) prior to grading. Evaluation was conducted by counting the number of live aphids per plant under a microscope. Percent Control was measured by using Abbott's correction formula (W. S. Abbott, “A Method of Computing the Effectiveness of an Insecticide” J. Econ. Entomol. 18 (1925), pp. 265-267) as follows. Corrected % Control=100*(X−Y)/X where X=No. of live aphids on solvent check plants and Y=No. of live aphids on treated plants. The results are indicated in the table entitled “Table ABC: Assay Results (F)” and “Table ABCD: Assay Results (C)” (See Table Section).

The subject of data set [4] is Yellow Fever Mosquito (YFM). It is filed as in vivo, Aedes aegypti. Conditions: 15 μL of diluted 4000 ppm master solution per well, about 1 day-old larvae, 3 days. The procedure: Master plates containing 400 μg of a molecule dissolved in 100 μL of dimethyl sulfoxide (DMSO) (equivalent to a 4000 ppm solution) are used. A master plate of assembled molecules contains 15 μL per well. To this plate, 135 μL of a 90:10 water:acetone mixture is added to each well. A robot (Biomek® NXP Laboratory Automation Workstation) is programmed to dispense 15 μL aspirations from the master plate into an empty 96-well shallow plate (“daughter” plate). There are 6 reps (“daughter” plates) created per master. The created daughter plates are then immediately infested with YFM larvae. The day before plates are to be treated, mosquito eggs are placed in Millipore water containing liver powder to begin hatching (4 g. into 400 mL). After the daughter plates are created using the robot, they are infested with 220 μL of the liver powder/larval mosquito mixture (about 1 day-old larvae). After plates are infested with mosquito larvae, a non-evaporative lid is used to cover the plate to reduce drying. Plates are held at room temperature for 3 days prior to grading. After 3 days, each well is observed and scored based on mortality. The results are indicated in the table entitled “Table ABC: Assay Results (F)” and “Table ABCD: Assay Results (C)” (See Table Section). Pesticidally Acceptable Acid Addition Salts, Salt Derivatives, Solvates, Ester Derivatives, Polymorphs, Isotopes and Radionuclides

Where [5] appears, read: 50 μg/cm^2 on artificial diet, second instar larvae, five to seven days, 25° C.
[6] abbreviates: 200 ppm foliar spray on cabbage seedlings, three days, Abbott corrected % control.

On to `C[C@H](NC(=O)CC(F)(F)F)NC(=O)c1ccc(/C=C/C(c2cc(Cl)c(Cl)c(Cl)c2)C(F)(F)F)cc1C(F)(F)F` (stereo partly drawn) [Compound F2, 4-((E)-4,4,4-trifluoro-3-(3,4,5-trichlorophenyl)but-1-en-1-yl)-2-(trifluoromethyl)-N—((R)-1-(3,3,3-trifluoropropanamido)ethyl)benzamide], for which the mortality at 50 µg/cm2 in data set [1] (setting [5]) and in data set [2] (setting [5]) was 50 to 100% each time. The mortality at 0.05 µg/cm2 is 100% in data set [1] (0.05 μg/cm^2, read-out: BAW Percent control (or mortality)) and 100% in data set [2] (0.05 μg/cm^2, read-out: CL Percent control (or mortality)). The mortality at 0.5 µg/cm2 in data set [1] (0.5 μg/cm^2, read-out: BAW Percent control (or mortality)) was 100%; in data set [2] (0.5 μg/cm^2, read-out: CL Percent control (or mortality)), 100%. Further, the mortality at 5 µg/cm2 worked out at 100% in data set [1] (5 μg/cm^2, read-out: BAW Percent control (or mortality)) and 100% in data set [2] (5 μg/cm^2, read-out: CL Percent control (or mortality)). For the same compound, the mortality at 200 ppm in data set [3] (setting [6]) is 0%. For the same compound, in data set [4], the “YFM % Control (or Mortality) rating” value is reported as “A (80-100)”.
On to `C[C@H](NC(=O)CC[S+](C)[O-])NC(=O)c1ccc(/C=C/C(c2cc(Cl)c(Cl)c(Cl)c2)C(F)(F)F)cc1C(F)(F)F` (stereo partly drawn) [Compound P49, N-((1R)-1-(3-(methylsulfinyl)propanamido)ethyl)-4-((E)-4,4,4-trifluoro-3-(3,4,5-trichlorophenyl)but-1-en-1-yl)-2-(trifluoromethyl)benzamide], for which the mortality at 50 µg/cm2 in data set [1] (setting [5]) and in data set [2] (setting [5]) was 50 to 100% in each case. Besides, the mortality at 200 ppm in data set [3] (setting [6]) fell in the range of 0 to 80%.
In the case of `CN(CCNC(=O)c1ccc(/C=C/C(c2cc(Cl)c(Cl)c(Cl)c2)C(F)(F)F)cc1C(F)(F)F)C(=O)OC(C)(C)C` (centres unmarked) [Compound C113, (E)-tert-butyl methyl(2-(4-(4,4,4-trifluoro-3-(3,4,5-trichlorophenyl)but-1-en-1-yl)-2-(trifluoromethyl)benzamido)ethyl)carbamate], the mortality at 50 µg/cm2 in data set [1] and in data set [2] was 50 to 100% throughout. Moreover, in data set [3] (foliar), the mortality at 200 ppm was 0%. Further, the “YFM % Control (or Mortality) rating” value in data set [4] is “A (80-100)”.
Consider `C[C@H](NC(=O)C[S+](C)[O-])NC(=O)c1ccc(/C=C/C(c2cc(Cl)c(Cl)c(Cl)c2)C(F)(F)F)cc1C(F)(F)F` (stereo partly drawn) [Compound P36, N-((1S)-1-(2-(Methylsulfinyl)acetamido)ethyl)-4-((E)-4,4,4-trifluoro-3-(3,4,5-trichlorophenyl)but-1-en-1-yl)-2-(trifluoromethyl)benzamide], for which the mortality at 50 µg/cm2 in data set [1] (setting [5]) and in data set [2] (setting [5]) was 50 to 100% in each case. The mortality at 200 ppm in data set [3] (setting [6]) came out at 0%.
For `C[C@H](NC(=O)CCCC(C)(C)C)NC(=O)c1ccc(/C=C/C(c2cc(Cl)c(Cl)c(Cl)c2)C(F)(F)F)cc1C(F)(F)F` (stereo partly drawn) [Compound F18, N—((R)-1-(5,5-Dimethylhexanamido)ethyl)-4-((E)-4,4,4-trifluoro-3-(3,4,5-trichlorophenyl)but-1-en-1-yl)-2-(trifluoromethyl)benzamide], the mortality at 50 µg/cm2 in data set [1] (setting [5]) and in data set [2] (setting [5]) was 50 to 100% throughout. Moreover, in data set [4], the “YFM % Control (or Mortality) rating” value was “A (80-100)”.
For the compound `CC[C@H](NC(=O)CCC(F)(F)F)NC(=O)c1ccc(/C=C/C(c2cc(Cl)c(Cl)c(Cl)c2)C(F)(F)F)cc1C(F)(F)F` (stereo partly drawn) [Compound F12, 4-((E)-4,4,4-Trifluoro-3-(3,4,5-trichlorophenyl)but-1-en-1-yl)-N—((R)-1-(4,4,4-trifluorobutanamido)propyl)-2-(trifluoromethyl)benzamide], the mortality at 50 µg/cm2 in data set [1] (setting [5]) and in data set [2] (setting [5]) was 50 to 100% in each case. Also, in data set [4], the “YFM % Control (or Mortality) rating” value was “A (80-100)”.
Take `C[C@H](NC(=O)CC(F)(F)F)NC(=O)c1ccc(/C=C/C(c2cc(Cl)c(Br)c(Cl)c2)C(F)(F)F)cc1C(F)(F)F` (stereo partly drawn) [Compound P4, 4-((E)-3-(4-Bromo-3,5-dichlorophenyl)-4,4,4-trifluorobut-1-en-1-yl)-2-(trifluoromethyl)-N—((R)-1-(3,3,3-trifluoropropanamido)ethyl)benzamide]: the mortality at 50 µg/cm2 in data set [1] (setting [5]) and in data set [2] (setting [5]) was 50 to 100% each time. In addition, in data set [4], the “YFM % Control (or Mortality) rating” value is recorded as “A (80-100)”.
Regarding `Cc1cc(/C=C/C(c2cc(Cl)c(F)c(Cl)c2)C(F)(F)F)ccc1C(=O)N[C@H](C)NC(=O)CC(F)(F)F` (stereo partly drawn) [Compound P5, 4-((E)-3-(3,5-Dichloro-4-fluorophenyl)-4,4,4-trifluorobut-1-en-1-yl)-2-methyl-N—((R)-1-(3,3,3-trifluoropropanamido)ethyl)benzamide], the mortality at 50 µg/cm2 in data set [1] (setting [5]) and in data set [2] (setting [5]) was 50 to 100% throughout. Also, the “YFM % Control (or Mortality) rating” value in data set [4] is listed as “A (80-100)”.
Regarding `C[C@H](NC(=O)CC#N)NC(=O)c1ccc(/C=C/C(c2cc(Cl)c(Cl)c(Cl)c2)C(F)(F)F)cc1C(F)(F)F` (stereo partly drawn) [Compound F11, N—((R)-1-(2-Cyanoacetamido)ethyl)-4-((E)-4,4,4-trifluoro-3-(3,4,5-trichlorophenyl)but-1-en-1-yl)-2-(trifluoromethyl)benzamide], the mortality at 50 µg/cm2 in data set [1] (setting [5]) and in data set [2] (setting [5]) was 50 to 100% throughout. In addition, in data set [4], the “YFM % Control (or Mortality) rating” value was “A (80-100)”.
For `CC(C)CCC(=O)N[C@@H](C)NC(=O)c1ccc(/C=C/C(c2cc(Cl)c(Cl)c(Cl)c2)C(F)(F)F)cc1C(F)(F)F` (stereo partly drawn) [Compound F4, N—((R)-1-(4-Methylpentanamido)ethyl)-4-((E)-4,4,4-trifluoro-3-(3,4,5-trichlorophenyl)but-1-en-1-yl)-2-(trifluoromethyl)benzamide], the mortality at 50 µg/cm2 in data set [1] (setting [5]) and in data set [2] (setting [5]) was 50 to 100% in each case. Further, the “YFM % Control (or Mortality) rating” value in data set [4] is recorded as “A (80-100)”.
As for `C[C@H](NC(=O)CC(C)(C)C)NC(=O)c1ccc(/C=C/C(c2cc(Cl)c(Cl)c(Cl)c2)C(F)(F)F)cc1C(F)(F)F` (stereo partly drawn) [Compound F15, N—((R)-1-(3,3-Dimethylbutanamido)ethyl)-4-((E)-4,4,4-trifluoro-3-(3,4,5-trichlorophenyl)but-1-en-1-yl)-2-(trifluoromethyl)benzamide], the mortality at 50 µg/cm2 in data set [1] (setting [5]) and in data set [2] (setting [5]) was 50 to 100% each time. In addition, the “YFM % Control (or Mortality) rating” value in data set [4] is listed as “A (80-100)”.

In general, mortality refers to the percentage killed.
